# Test results as given in article PMC3144219, “Identification of Inhibitors against Mycobacterium tuberculosis Thiamin Phosphate Synthase, an Important Target for the Development of Anti-TB Drugs” (PLoS ONE, 2011).
# Like-named read-outs stand apart in the source and are kept apart here.
# How the values were obtained:
# [1] = tested on: M.smegmatis mc^2155; test: MIC99 determination, broth macrodilution with CFU plating; type: cell-based; settings: for inhibition of M.smegmatis growth: at (up to) 750 µg/ml; for MIC99 for M.smegmatis: 24 hours, 99% inhibition of growth
# [2] = molecular target: T1, M.tuberculosis thiamin phosphate synthase (MtTPS) (Mycobacterium tuberculosis, UniProt P9WG75)
# [3] = molecular target: T1, M.tuberculosis thiamin phosphate synthase (MtTPS); test: biochemical; settings: for inhibition at 100 µg/mL: read-out: percent inhibition of MtTPS activity
# [4] = tested on: M.tuberculosis H37Rv; test: MIC99 determination in broth culture with CFU plating; type: cell-based; settings: 7 days, 99% inhibition of growth; for MIC99: Mycobacterium tuberculosis, H37RV, 168 h
# [5] = tested on: Cc1ncsc1CCO; test: purified protein, by the assay type; settings: pH 7.5; 37.0 °C
# T1 sequence (P9WG75 whole entry, looked up): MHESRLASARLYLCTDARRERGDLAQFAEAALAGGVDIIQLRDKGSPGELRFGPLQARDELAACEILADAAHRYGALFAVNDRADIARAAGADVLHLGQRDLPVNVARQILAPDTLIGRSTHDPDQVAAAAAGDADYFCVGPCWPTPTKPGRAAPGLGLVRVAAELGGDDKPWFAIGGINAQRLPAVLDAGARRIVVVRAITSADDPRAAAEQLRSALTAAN
molecule,measurement,setting,value
"Cc1cc(O)c(C(C)C)cc1N=Cc1cc([N+](=O)[O-])ccc1O [Compound 9, 4-{[(2-hydroxy-5-nitrophenyl)methylidene]amino}-5-methyl-2-(propan-2-yl)phenol]",inhibition of M.smegmatis growth,[1],32% inhibition at 750 µg/ml
same,mode of inhibition of MtTPS,[2],competing with HMP-PP
same,IC50,[3],108 µM
same,inhibition at 100 µg/mL,[3],> 20%
same,MIC99,[4],6 µg/mL
"O=C(Nc1cccc([N+](=O)[O-])c1)c1cc2ccccc2cc1O [Compound 10, Naphtazol B]",inhibition of M.smegmatis growth,[1],No inhibition
same,MIC99 for M.tuberculosis,[4],750 µg/mL
"CN1[C@@H]2CC[C@H]1CC(OC(c1ccccc1)c1ccccc1)C2.CS(=O)(=O)O (stereo partly drawn) [Compound 11, 3-benzhydryloxy-8-methyl-8-azab icyclo [3.2.1]octane;methanesulfonic acid]",MIC99 for M.smegmatis,[1],125 µg/mL
same,MIC99 for M.tuberculosis,[4],250 µg/mL
"O=C(Nc1cccc([N+](=O)[O-])c1)c1ccc2ccccc2c1O [Compound 12, 1-hydroxy-(3-nitrophenyl) naphthalene-2-carboxamide]",inhibition of M.smegmatis growth,[1],45% inhibition at 750 µg/ml
same,IC50,[2],100 µ/ml
same,percent inhibition of MtTPS activity,[2],greater than 20%
"c1ccc(CSc2nnc3c4ccccc4c4ccccc4c3n2)cc1 [Compound 33, 3-benzylsulfanyl phenanthro[9,10-e][1,2,4]triazine]",MIC99 for M.smegmatis,[1],150 µg/mL
same,IC50,[2],100 µ/ml
same,percent inhibition of MtTPS activity,[2],greater than 20%
same,MIC99 for M.tuberculosis,[4],162.5 µg/mL
"CCN(CC)c1nc(Cl)nc(Nc2ccc3cc(-c4ccccc4)c(=O)oc3c2)n1 [Compound 35, Coumarin, 7-[[4-chloro-6-(diethylamino)-s-triazin-2-yl]amino]-3-phenyl-]",inhibition of M.smegmatis growth,[1],No inhibition
same,IC50,[3],> 237 µM
same,inhibition at 100 µg/mL,[3],> 20%
same,MIC99,[4],125 µg/mL
M.tuberculosis thiamin phosphate synthase (MtTPS) (Mycobacterium tuberculosis H37Rv),Km,[5],14 µM
